According to patent publication US9322066B2, “Predictors for cancer treatment” (priority 2011, dated 2016):

Test system: relapsed or refractory, rituximab-naive or -sensitive follicular B-cell NHL
Test: Time to next anti-lymphoma therapy, Vc-R vs rituximab study, by biomarker
Format: in vivo, human
Parameters: Median, Time to Next Anti-Lymphoma Therapy / Time to Next Anti-Lymphoma Therapy, Median: unit not given here
From the text: Non-Hodgkin lymphoma (NHL) encompasses several unique malignant lymphoid disease entities that vary in clinical behavior, morphologic appearance, immunologic, and molecular phenotype. […] A randomized, open-label, active-controlled, multicenter, multinational, prospective study to compare the efficacy and safety of the combination of bortezomib and rituximab (Vc-R) to single-agent rituximab in subjects who have relapsed or refractory, rituximab-naive or -sensitive follicular B-cell NHL was performed.
Subjects were centrally randomized to Treatment Groups A (Vc-R) or B (rituximab) in a 1:1 ratio taking into account the following stratification factors: • Follicular Lymphoma International Prognostic Index (FLIPI) score (low [0 or 1 factor], intermediate [2 factors], high [≧3 factors]); • Prior rituximab therapy (yes, no); • Time since last dose of anti-lymphoma therapy (≦1 year, >1 year); • Region (United States/Canada, European Union, Rest of World).
The following clinical endpoints were included in the analysis within each treatment group and an overall comparison was made with the biomarker-related endpoints: Progression-free survival, defined as the interval between the date of randomization and the date of progressive disease (PD) or death, whichever is first reported in the ITT population; overall survival; overall response rate (complete response [CR]+CR unconfirmed [CRu]+partial response [PR]); overall CR rate (CR+CRu); duration of response; time to next anti-lymphoma therapy; and treatment free interval.

[1] = PSMB1/A171S: G/G, >1 year since last anti-lymphoma treatment
[2] = PSMB1/A171S: G/G, Ann Arbor Stage IV
[3] = PSMB1/A171S: G/G, European Union
[4] = PSMB1/A171S: G/G, High Tumor Burden
[5] = PSMB1/A171S: G/G, ≦65 years old
[6] = PSMB1/I208N: T/T, >1 year since last anti-lymphoma treatment
[7] = PSMB1/I208N: T/T, Ann Arbor Stage IV
[8] = PSMB1/I208N: T/T, European Union
[9] = PSMB1/I208N: T/T, High Tumor Burden
[10] = PSMB1/I208N: T/T, ≦65 years old
[11] = PSMB1/P11A: C/G, European Union
[12] = PSMB1/P11A: C/G, High Tumor Burden
[13] = PSMB1/P11A: G/G, >1 year since last anti-lymphoma treatment
[14] = PSMB1/P193L: C/C, >1 year since last anti-lymphoma treatment
[15] = PSMB1/P193L: C/C, Ann Arbor Stage IV
[16] = PSMB1/P193L: C/C, European Union
[17] = PSMB1/P193L: C/C, High Tumor Burden
[18] = PSMB1/P193L: C/C, ≦65 years old
[19] = PSMB2/E49X: G/G, >1 year since last anti-lymphoma treatment
[20] = PSMB2/E49X: G/G, Ann Arbor Stage IV
[21] = PSMB2/E49X: G/G, European Union
[22] = PSMB2/E49X: G/G, High Tumor Burden
[23] = PSMB2/G187V: G/G, >1 year since last anti-lymphoma treatment
[24] = PSMB2/G187V: G/G, Ann Arbor Stage IV
[25] = PSMB2/G187V: G/G, European Union
[26] = PSMB2/G187V: G/G, High Tumor Burden
[27] = PSMB2/G187V: G/G, ≦65 years old
[28] = PSMB2/L159F: C/C, >1 year since last anti-lymphoma treatment
[29] = PSMB2/L159F: C/C, Ann Arbor Stage IV
[30] = PSMB2/L159F: C/C, European Union
[31] = PSMB2/L159F: C/C, High Tumor Burden
[32] = PSMB2/L159F: C/C, ≦65 years old
[33] = PSMB5/L206M: C/C, >1 year since last anti-lymphoma treatment
[34] = PSMB5/L206M: C/C, Ann Arbor Stage IV

rituximab
Median, Time to Next Anti-Lymphoma Therapy (P65 INTENSITY CYTOPLASMIC SIGNAL: ≧2+, ≦65 years old, IRC Review): 484 | Time to Next Anti-Lymphoma Therapy, Evt/N [1]: 98/165 | Time to Next Anti-Lymphoma Therapy, Median [1]: 688 | Time to Next Anti-Lymphoma Therapy, Evt/N [2]: 86/127 | Time to Next Anti-Lymphoma Therapy, Median [2]: 457 | Time to Next Anti-Lymphoma Therapy, Evt/N [3]: 75/119 | Time to Next Anti-Lymphoma Therapy, Median [3]: 675 | Time to Next Anti-Lymphoma Therapy, Evt/N [4]: 108/147 | Time to Next Anti-Lymphoma Therapy, Median [4]: 396 | Time to Next Anti-Lymphoma Therapy, Evt/N [5]: 130/198 | Time to Next Anti-Lymphoma Therapy, Median [5]: 489 | Time to Next Anti-Lymphoma Therapy, Evt/N [6]: 98/165 | Time to Next Anti-Lymphoma Therapy, Median [6]: 688 | Time to Next Anti-Lymphoma Therapy, Evt/N [7]: 86/127 | Time to Next Anti-Lymphoma Therapy, Median [7]: 457 | Time to Next Anti-Lymphoma Therapy, Evt/N [8]: 75/119 | Time to Next Anti-Lymphoma Therapy, Median [8]: 675 | Time to Next Anti-Lymphoma Therapy, Evt/N [9]: 108/147 | Time to Next Anti-Lymphoma Therapy, Median [9]: 396 | Time to Next Anti-Lymphoma Therapy, Evt/N (PSMB1/I208N: T/T, No Subgroup): 173/276 | Time to Next Anti-Lymphoma Therapy, Median (PSMB1/I208N: T/T, No Subgroup): 546 | Time to Next Anti-Lymphoma Therapy, Evt/N [10]: 130/198 | Time to Next Anti-Lymphoma Therapy, Median [10]: 489 | Time to Next Anti-Lymphoma Therapy, Evt/N [11]: 34/49 | Time to Next Anti-Lymphoma Therapy, Median [11]: 462 | Time to Next Anti-Lymphoma Therapy, Evt/N (PSMB1/P11A: C/G, Female): 42/75 | Time to Next Anti-Lymphoma Therapy, Median (PSMB1/P11A: C/G, Female): 546 | Time to Next Anti-Lymphoma Therapy, Evt/N [12]: 49/72 | Time to Next Anti-Lymphoma Therapy, Median [12]: 358 | Time to Next Anti-Lymphoma Therapy, Evt/N (PSMB1/P11A: C/G, No Subgroup): 78/127 | Time to Next Anti-Lymphoma Therapy, Median (PSMB1/P11A: C/G, No Subgroup): 550 | Time to Next Anti-Lymphoma Therapy, Evt/N (PSMB1/P11A: C/G, Other): 2/3 | Time to Next Anti-Lymphoma Therapy, Median (PSMB1/P11A: C/G, Other): 164 | Time to Next Anti-Lymphoma Therapy, Evt/N (PSMB1/P11A: C/G, White): 67/111 | Time to Next Anti-Lymphoma Therapy, Median (PSMB1/P11A: C/G, White): 581 | Time to Next Anti-Lymphoma Therapy, Evt/N (PSMB1/P11A: C/G, ≦65 years old): 63/96 | Time to Next Anti-Lymphoma Therapy, Median (PSMB1/P11A: C/G, ≦65 years old): 546 | Time to Next Anti-Lymphoma Therapy, Evt/N [13]: 17/20 | Time to Next Anti-Lymphoma Therapy, Median [13]: 429 | Time to Next Anti-Lymphoma Therapy, Evt/N (PSMB1/P11A: G/G, Male): 17/19 | Time to Next Anti-Lymphoma Therapy, Median (PSMB1/P11A: G/G, Male): 421 | Time to Next Anti-Lymphoma Therapy, Evt/N (PSMB1/P11A: G/G, No Subgroup): 30/37 | Time to Next Anti-Lymphoma Therapy, Median (PSMB1/P11A: G/G, No Subgroup): 436 | Time to Next Anti-Lymphoma Therapy, Evt/N (PSMB1/P11A: G/G, White): 27/32 | Time to Next Anti-Lymphoma Therapy, Median (PSMB1/P11A: G/G, White): 421 | Time to Next Anti-Lymphoma Therapy, Evt/N (PSMB1/P11A: G/G, ≦65 years old): 21/25 | Time to Next Anti-Lymphoma Therapy, Median (PSMB1/P11A: G/G, ≦65 years old): 409 | Time to Next Anti-Lymphoma Therapy, Evt/N [14]: 98/165 | Time to Next Anti-Lymphoma Therapy, Median [14]: 688 | Time to Next Anti-Lymphoma Therapy, Evt/N [15]: 86/127 | Time to Next Anti-Lymphoma Therapy, Median [15]: 457 | Time to Next Anti-Lymphoma Therapy, Evt/N [16]: 75/119 | Time to Next Anti-Lymphoma Therapy, Median [16]: 675 | Time to Next Anti-Lymphoma Therapy, Evt/N [17]: 108/147 | Time to Next Anti-Lymphoma Therapy, Median [17]: 396 | Time to Next Anti-Lymphoma Therapy, Evt/N (PSMB1/P193L: C/C, No Subgroup): 173/276 | Time to Next Anti-Lymphoma Therapy, Median (PSMB1/P193L: C/C, No Subgroup): 546 | Time to Next Anti-Lymphoma Therapy, Evt/N [18]: 130/198 | Time to Next Anti-Lymphoma Therapy, Median [18]: 489 | Time to Next Anti-Lymphoma Therapy, Evt/N [19]: 98/165 | Time to Next Anti-Lymphoma Therapy, Median [19]: 688 | Time to Next Anti-Lymphoma Therapy, Evt/N [20]: 86/127 | Time to Next Anti-Lymphoma Therapy, Median [20]: 457 | Time to Next Anti-Lymphoma Therapy, Evt/N [21]: 75/119 | Time to Next Anti-Lymphoma Therapy, Median [21]: 675 | Time to Next Anti-Lymphoma Therapy, Evt/N [22]: 108/147 | Time to Next Anti-Lymphoma Therapy, Median [22]: 396 | Time to Next Anti-Lymphoma Therapy, Evt/N (PSMB2/E49X: G/G, No Subgroup): 173/276 | Time to Next Anti-Lymphoma Therapy, Median (PSMB2/E49X: G/G, No Subgroup): 546 | Time to Next Anti-Lymphoma Therapy, Evt/N (PSMB2/E49X: G/G, ≦65 years old): 130/198 | Time to Next Anti-Lymphoma Therapy, Median (PSMB2/E49X: G/G, ≦65 years old): 489 | Time to Next Anti-Lymphoma Therapy, Evt/N [23]: 98/165 | Time to Next Anti-Lymphoma Therapy, Median [23]: 688 | Time to Next Anti-Lymphoma Therapy, Evt/N [24]: 86/127 | Time to Next Anti-Lymphoma Therapy, Median [24]: 457 | Time to Next Anti-Lymphoma Therapy, Evt/N [25]: 75/119 | Time to Next Anti-Lymphoma Therapy, Median [25]: 675 | Time to Next Anti-Lymphoma Therapy, Evt/N [26]: 108/147 | Time to Next Anti-Lymphoma Therapy, Median [26]: 396 | Time to Next Anti-Lymphoma Therapy, Evt/N (PSMB2/G187V: G/G, No Subgroup): 173/276 | Time to Next Anti-Lymphoma Therapy, Median (PSMB2/G187V: G/G, No Subgroup): 546 | Time to Next Anti-Lymphoma Therapy, Evt/N [27]: 130/198 | Time to Next Anti-Lymphoma Therapy, Median [27]: 489 | Time to Next Anti-Lymphoma Therapy, Evt/N [28]: 98/165 | Time to Next Anti-Lymphoma Therapy, Median [28]: 688 | Time to Next Anti-Lymphoma Therapy, Evt/N [29]: 86/127 | Time to Next Anti-Lymphoma Therapy, Median [29]: 457 | Time to Next Anti-Lymphoma Therapy, Evt/N [30]: 75/119 | Time to Next Anti-Lymphoma Therapy, Median [30]: 675 | Time to Next Anti-Lymphoma Therapy, Evt/N [31]: 108/147 | Time to Next Anti-Lymphoma Therapy, Median [31]: 396 | Time to Next Anti-Lymphoma Therapy, Evt/N (PSMB2/L159F: C/C, No Subgroup): 173/276 | Time to Next Anti-Lymphoma Therapy, Median (PSMB2/L159F: C/C, No Subgroup): 546 | Time to Next Anti-Lymphoma Therapy, Evt/N [32]: 130/198 | Time to Next Anti-Lymphoma Therapy, Median [32]: 489 | Time to Next Anti-Lymphoma Therapy, Evt/N [33]: 98/165 | Time to Next Anti-Lymphoma Therapy, Median [33]: 688 | Time to Next Anti-Lymphoma Therapy, Evt/N [34]: 86/127 | Time to Next Anti-Lymphoma Therapy, Median [34]: 457 | Time to Next Anti-Lymphoma Therapy, Evt/N (PSMB5/L206M: C/C, European Union): 75/119
